In US20240368122A1, “JAK2 INHIBITORS AND METHODS OF USE THEREOF” (RELAY THERAPEUTICS, INC., priority 2021, published 2024):
Read-outs that look alike come from different tables or passages of the source.

What was measured:
[1] = tested on: TF1 JAK2 V617F STAT5 reporter; assay: Cellular TF1 STAT5 assay (luciferase reporter), JAK2 V617F; assay type: cell-based; conditions: read-out: Cell PD TF1 V617F STAT5 (IC50)
Method: (§1) Selected compounds of the present disclosure were tested in a Cellular TF1 STAT3 or STAT5 assay, to measure the degree of JAK2-mediated STAT3 or STAT5 phosphorylation, respectively. TF1 cells (immortalized erythroleukemia line) expressing either wildtype or V617F mutant JAK2 with a luciferase reporter were used.
(§2) Cell culture: Cells were put into antibiotic selection (1 ug/ml puro+500 ug/ml Geneticin) when first thawed then maintained in growth media without antibiotics. Cells were maintained in exponential growth phase, between 0.02-1 E6 cells/ml.
(§3) Compound preparation: Compounds were screened as 10-point dose response curves 1:3 dilutions. DMSO is used as the vehicle control. All wells were normalized to the same final DMSO concentration. Compounds were pre-spotted onto 384 well plates using an Echo acoustic dispenser, 50 nL of 1000× (10 mM top concentration) DMSO stock/well. Each compound is run in triplicate plates.
(§4) Cell plating: Cells were counted using Vi-Cell XR, then cells were spun down and resuspended in growth media to 200,000 cells/ml. Cells were added to plates containing compound. 10,000 cells/well in 50 ul volume using a Biomek liquid handler. Plates were briefly mixed on a shaker for 1 minute at 2500 rpm then placed in a 37° C., 5% CO2 incubator overnight for 18-20 hrs.
(§5) Measuring luciferase activity: ONE-glo reagent was brought to room temperature, and 25 μL of ONE-glo assay reagent was added to each well using Biomek liquid handler. The plates were incubated for 10 minutes at room temperature, then luminescence was measured on an Envision plate reader.

[2] = tested on: TF1 JAK2 V617F STAT3 reporter; assay: Cellular TF1 STAT3 assay (luciferase reporter), JAK2 V617F; assay type: cell-based; conditions: read-out: Cell PD-TF1 JAK2 V617F STAT3 (IC50)
Method: as §1, §2, §3, §4, §5

[3] = molecular target: T1, JAK2 JH2 WT (V536-D812) [W659A, W777A, F794H solubilizing mutations] (Homo sapiens, UniProt O60674, F794H/W659A/W777A); assay: Surface Plasmon Resonance (SPR) binding assay, JAK2 JH2 domain
T1 construct: **JAK2 JH2 WT (V536-D812) [W659A, W777A, F794H solubilizing mutations]; C-thrombin-avi-His6; thrombin cleavage site (C); His6 (C); purchased Biortus
T1 sequence (O60674 536-812 W659A/W777A/F794H): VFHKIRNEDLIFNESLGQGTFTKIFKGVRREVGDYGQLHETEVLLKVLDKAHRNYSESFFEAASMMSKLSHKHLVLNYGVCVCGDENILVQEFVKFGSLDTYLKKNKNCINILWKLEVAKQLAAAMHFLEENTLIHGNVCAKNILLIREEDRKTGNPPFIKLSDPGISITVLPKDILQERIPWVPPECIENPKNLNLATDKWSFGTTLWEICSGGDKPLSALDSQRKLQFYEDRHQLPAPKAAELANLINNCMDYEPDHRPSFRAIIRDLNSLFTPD
Method: Selected compounds of the present disclosure were tested in a Surface Plasmon Resonance (SPR) Assay to measure their binding kinetics and affinity for proteins of interest.
Prepare buffer: 50 mM HEPES pH 7.5, 150 mM NaCl, 0.05% (v/v) Tween, and 10% (v/v) glycerol were combined and pH was adjusted to 7.5, then filtered. 5 mM DTT, was added, and buffer without DMSO was reserved for compound resuspension. 2% (v/v) DMSO was added for assay buffer, and separately 1% DMSO was used to make buffer for resuspending compounds.
Prepare compounds: Using a Bravo liquid handler, 99 μL of 1% (v/v) DMSO assay buffer was added to 1 μL compounds in DMSO.
Run 8K Method: Biotin CAPture (CAP) chip surface was regenerated prior to run by: Inserting CAP chip into Biacore 8K, prime machine with assay buffer with 2% (v/v) DMSO; Setting instrument temperature to 20° C.; Conditioning surface with NaOH/GdnHCl reagents from CAP chip kit (60 seconds, 10 μL/min); and Capturing oligo-Streptavidin (SA) reagent from CAP kit (600 seconds, 1 μL/min), expected capture ˜2500 RU. JAK2 JH1 or JH2 protein was immobilized by preparing a sample of 0.5 uM JH1 or 0.4 uM JH2 protein diluted in assay buffer without DMSO and supplemented with 10 uM of a selected compound of the invention as a stabilizer (370 seconds, 5 uL/min), expected capture ˜1000 RU. Remaining biotin sites on SA were blocked with 1 uM biotin (30 seconds, 20 uL/min), then equilibrated for 1800 seconds at 100 uL/min. Compounds being assayed were run in single cycle kinetics: 4 doses with a top concentration of 5 uM (JH1) or 500 nM (JH2), dilution factor of 3, at 20° C., for a contact time of 60 seconds, and a dissociation time of 300 seconds (JH1) or 1200 seconds (JH2), at a flow rate of 30 uL/min. The surface was completely regenerated after each compound is run, and JH1 or JH2 protein was immobilized fresh prior to each new compound. Data were fitted kinetically with 1:1 binding model using Biacore Insight Evaluation Software.

[4] = Homo sapiens, TF-1, TF1 cells, JAK2 V617F

Row | SMILES | IC50 ([1]; TF1 JAK2 V617F) | IC50 ([2]; TF1 JAK2 V617F) | Kd ([3]; SPR, JAK2 JH2 domain) | IC50 [1, 4] | IC50 [2, 4] | Kd [3]
1 | CNC(=O)c1nnc(NC(=O)C2CC2)cc1Nc1cccc(-c2ccc(C(=O)N(C)Cc3ccc(F)cc3)cc2)c1OC [Compound 95] | 5000 to 100000 nM | 5000 to 100000 nM | 10 to 50 nM | – | – | –
2 | CNC(=O)c1nnc(NC(=O)C2CC2)cc1Nc1cccc(-c2ccc(C(=O)N(C)C[C@@H]3CCS(=O)(=O)C3)nc2)c1OC (single isomer, unassigned) [Compound 209] | – | – | – | 5000 to 100000 nM | 5000 to 100000 nM | 10 to 50 nM
3 | CNC(=O)c1nnc(NC(=O)C2CC2)cc1Nc1ccc(C)c(-c2cc(C3CCN(Cc4cc(C#N)ccn4)CC3)n(C)n2)c1OC [Compound 186] | 5000 to 100000 nM | 5000 to 100000 nM | 50 to 500 nM | – | – | –
4 | CNC(=O)c1nnc(NC(=O)C2CC2)cc1Nc1cccc(-c2cnn([C@H]3C[C@@H]([C@H](OC)c4ccccn4)C3)c2)c1OC (single isomer, unassigned) [Compound 350] | – | – | – | 500 to 5000 nM | 500 to 5000 nM | 10 to 50 nM
5 | CNC(=O)c1nnc(NC(=O)C2CC2)cc1Nc1cccc(-c2cn(C3CN(Cc4cccc(C#N)n4)C3)nc2C(C)O)c1OC (centres unmarked) [Compound 337] | – | – | – | 5000 to 100000 nM | 5000 to 100000 nM | 0.01 to 10 nM
6 | CNC(=O)c1nnc(NC(=O)C2CC2)cc1Nc1cccc(-c2cnn(C3CN(Cc4cccc(OC)n4)C3)c2)c1OC [Compound 107] | 50 to 500 nM | 50 to 500 nM | 0.01 to 10 nM | – | – | –
7 | CNC(=O)c1nnc(NC(=O)C2CC2)cc1Nc1cccc(-c2cc(N3CC(Cc4ccccn4)C3)n(C)n2)c1OC [Compound 404] | – | – | – | 5000 to 100000 nM | – | –
8 | CNC(=O)c1nnc(NC(=O)C2CC2)cc1Nc1cccc(-c2ccc(C(=O)N(C)Cc3cn(C)nc3C3CC3)nc2)c1OC [Compound 252] | – | – | – | 50 to 500 nM | 50 to 500 nM | 0.01 to 10 nM
9 | CNC(=O)c1nnc(NC(=O)C2CC2)cc1Nc1cccc(-c2ccc(C(=O)N(C)Cc3ccccc3C(F)(F)F)nc2)c1OC [Compound 52] | 500 to 5000 nM | 500 to 5000 nM | 0.01 to 10 nM | – | – | –
10 | CNC(=O)c1nnc(NC(=O)C2CC2)cc1Nc1cccc(-c2ccc(C(=O)N(C)Cc3nc(CN(C)C)cs3)nc2)c1OC [Compound 253] | – | – | – | 500 to 5000 nM | 5000 to 100000 nM | 10 to 50 nM
11 | CNC(=O)c1nnc(NC(=O)C2CC2)cc1Nc1cccc(-c2ccc(C(=O)N(C)Cc3cn(C)nc3C(F)(F)F)nc2)c1OC [Compound 51] | 50 to 500 nM | 50 to 500 nM | 0.01 to 10 nM | – | – | –
12 | CNC(=O)c1nnc(NC(=O)C2CC2)cc1Nc1cccc(-c2ccc(C(=O)N3CCc4cccnc4CC3)nc2)c1OC [Compound 196] | – | – | – | 500 to 5000 nM | 500 to 5000 nM | 0.01 to 10 nM
13 | CNC(=O)c1nnc(NC(=O)C2CC2)cc1Nc1cccc(-c2cnn(C3CN(Cc4cccc(C#CCN)n4)C3)c2)c1OC [Compound 265] | – | – | – | 500 to 5000 nM | 500 to 5000 nM | 0.01 to 10 nM
14 | [2H]C([2H])([2H])NC(=O)c1nnc(NC(=O)C2CC2)cc1Nc1cccc(-c2cnn(C3CN(Cc4ccccn4)C3)c2)c1OC [Compound 105] | 50 to 500 nM | 50 to 500 nM | 0.01 to 10 nM | – | – | –
15 | CNC(=O)c1nnc(NC(=O)C2CC2)cc1Nc1cccc(-c2cnn(C3CN(Cc4cccc(C5(C#N)CC5)n4)C3)c2)c1OC [Compound 292] | – | – | – | 50 to 500 nM | 50 to 500 nM | 0.01 to 10 nM
16 | CNC(=O)c1nnc(NC(=O)C2CC2)cc1Nc1cccc(-c2cn([C@H]3CN(Cc4cccc(C#N)n4)[C@@H]3C)nn2)c1OC (stereo in doubt) [Compound 234] | – | – | – | 50 to 500 nM | 50 to 500 nM | 0.01 to 10 nM
17 | CNC(=O)c1nnc(NC(=O)C2CC2)cc1Nc1cccc(-c2cnn(C3CN(Cc4cccn5ccnc45)C3)c2)c1OC [Compound 373] | – | – | – | 50 to 500 nM | 50 to 500 nM | 0.01 to 10 nM
18 | [2H]C([2H])([2H])N(Cc1cc(C#N)ccn1)C(=O)c1ncc(-c2c(C)ccc(Nc3cc(NC(=O)C4CC4)nnc3C(=O)NC)c2OC)cn1 [Compound 87] | – | – | 0.01 to 10 nM | – | – | –

Row | SMILES | IC50 ([1]; TF1 JAK2 V617F) | IC50 ([2]; TF1 JAK2 V617F) | Kd ([3]; SPR, JAK2 JH2 domain) | IC50 [1, 4] | IC50 [2, 4] | Kd [3]
19 | CNC(=O)c1nnc(NC(=O)C2CC2)cc1Nc1cccc(-c2cnn(C3CN(Cc4cccc([S@+](C)[O-])n4)C3)c2)c1OC (single isomer, unassigned) [Compound 402] | – | – | – | 50 to 500 nM | – | –
20 | CNC(=O)c1nnc(NC(=O)C2CC2)cc1Nc1cc(F)c(C)c(-c2ccc(C(=O)N(C)Cc3cc(S(C)(=O)=O)ccn3)nc2)c1OC [Compound 400] | – | – | – | 50 to 500 nM | – | –
21 | CNC(=O)c1nnc(NC(=O)C2CC2)cc1Nc1nccc(-c2ccc(C(=O)N(C)Cc3ncc(COC)s3)nc2)c1OC [Compound 375] | – | – | – | – | – | 0.01 to 10 nM
22 | CNC(=O)c1nnc(NC(=O)C2CC2)cc1Nc1cccc(-c2ccc(C(=O)N(C)C(C)c3cnn(C)c3)nc2)c1OC (centres unmarked) [Compound 46] | – | – | 0.01 to 10 nM | – | – | –
23 | CNC(=O)c1nnc(NC(=O)C2CC2)cc1Nc1cccc(-c2ccc(C3CN(Cc4ncc(OC)cc4Cl)C3)nc2)c1OC [Compound 386] | – | – | – | 500 to 5000 nM | 5000 to 100000 nM | –
24 | CNC(=O)c1nnc(NC(=O)C2CC2)cc1Nc1cccc(-c2cnn(C3CN(Cc4nn(C)cc4C)C3)c2)c1OC [Compound 215] | – | – | – | 500 to 5000 nM | 500 to 5000 nM | –
25 | CNC(=O)c1nnc(NC(=O)C2CC2)cc1Nc1ccc(Cl)c(-c2ccc(C(=O)N(C)Cc3cc(S(C)(=O)=O)ccn3)nc2)c1OC [Compound 401] | – | – | – | 50 to 500 nM | – | –
26 | COc1c(Nc2cc(NC(=O)C3CC3)nn3cc(C(N)=O)nc23)ccc(C)c1-c1cnn(C2CN(Cc3ccccn3)C2)c1 [Compound 392] | – | – | – | 5000 to 100000 nM | 5000 to 100000 nM | –
27 | CNC(=O)c1nnc(NC(=O)C2CC2)cc1Nc1cccc(-c2ccc(C3CN(Cc4ccc(OC5CC5)cn4)C3)nc2)c1OC [Compound 390] | – | – | – | – | – | 50 to 500 nM
28 | CNC(=O)c1nnc(NC(=O)C2CC2)cc1Nc1cccc(-c2ccc(C(=O)N(C)Cc3cc([S@@+](C)[O-])ccn3)nc2)c1OC (single isomer, unassigned) [Compound 405] | – | – | – | 50 to 500 nM | – | –
29 | CNC(=O)c1nnc(NC(=O)C2CC2)cc1Nc1cccc(-c2cc(N3CC(Oc4ccccn4)C3)n(C)n2)c1OC [Compound 393] | – | – | – | 5000 to 100000 nM | 500 to 5000 nM | –
30 | CNC(=O)c1nnc(NC(=O)C2CC2)cc1Nc1cccc(-c2ccc(C(=O)N(C)Cc3cc(C#N)ccn3)c(C(F)F)c2)c1OC [Compound 233] | – | – | – | 500 to 5000 nM | 500 to 5000 nM | –
31 | CNC(=O)c1nnc(NC(=O)C2CC2)cc1Nc1cccc(-c2ccc(C3CN(Cc4ccc(C(F)(F)F)cn4)C3)nc2)c1OC [Compound 387] | – | – | – | 500 to 5000 nM | 5000 to 100000 nM | –
32 | CNC(=O)c1nnc(NC(=O)C2CC2)cc1Nc1cccc(-c2ccc(C(=O)N(C)Cc3cc([S@+](C)[O-])ccn3)nc2)c1OC (single isomer, unassigned) [Compound 407] | – | – | – | 500 to 5000 nM | – | –
33 | COc1c(Nc2cc(NC(=O)C3CC3)nnc2-c2ncc[nH]2)cccc1-c1cnn(C2CN(Cc3ccccn3)C2)c1 [Compound 406] | – | – | – | 5000 to 100000 nM | – | –
34 | COc1c(Nc2cc(NC(=O)C3CC3)nn3cc(C#N)nc23)ccc(C)c1-c1cnn(C2CN(Cc3ccccn3)C2)c1 [Compound 395] | – | – | – | 5000 to 100000 nM | 5000 to 100000 nM | –
35 | CNC(=O)c1nnc(NC(=O)C2CC2)cc1Nc1cccc(-c2cnn(C3CN(Cc4cccc([S@@+](C)[O-])n4)C3)c2)c1OC (single isomer, unassigned) [Compound 403] | – | – | – | 50 to 500 nM | – | –
